Patent US8680133B2, “Alkyl indole-3-carbinol-derived antitumor agents” (The Ohio State University Research Foundation, priority 2009, dated 2014)

Experiments:
PC-3 xenograft tumor = PC-3 xenograft tumor growth in nude mice, oral gavage; assay type: in vivo; conditions: 25 and 50 mg/kg per day by oral gavage, 49-day treatment; in words
Description: FIG. 2 provides three graphs (A-C) showing the in vivo effects of OSU-A9M (C) versus OSU-A9 (A) and OSU-A9 F (B), each at 25 and 50 mg/kg per day by oral gavage, on suppressing PC-3 xenograft tumor growth in nude mice (n=6).
The efficacy studies were therefore repeated with OSU-A9M and OSU-A9F, following 42 days and 49 days treatment, respectively, versus OSU-A9 with 49-day treatment.
In all three treatments, the body weights of drug-treated mice were not affected. No signs of overt toxicity were observed.

[1] = test system: PC-3 prostate cancer cells; experiment: MTT assay of PC-3 cell viability; assay type: cell-based; conditions: MTT assay, 24, 48 and 72 h; comparison in words
Description: Each data point represents means±S.D. (n=6). The activity of OSU-A9M versus its parent compound A9 ([1-(3′-nitro-4′-chlorobenzenesulfonyl)-1H-indol-3-yl]-methanol) and its fluorinated counterpart OSU-A9F ([1-(4-Chloro-3-nitro-benzenesulfonyl)-5-fluoro-1H-indol-3-yl])-methanol in suppressing the cell viability of PC-3 prostate cancer cells was compared using the MTT [3-(4,5-dimethylthiazol-2-yl)-2,5-diphenyl-2H-tetrazolium bromide] assay. Cancer cells and PrECs were grown in 5% FBS-supplemented RPMI 1640 medium or 5% FBS-supplemented prostate epithelial growth medium, respectively, in 96-well, flat-bottomed plates for 24 h, and then exposed to various concentrations of test agents in the same medium for the indicated time intervals. Controls received DMSO vehicle at a concentration equal to that in drug-treated cells. At the end of the treatment, the medium was removed, replaced by 200 μL of 0.5 mg/mL of MTT in the same medium, and cells were incubated in the CO2 incubator at 37° C. for 2 h. Supernatants were removed from the wells, and the reduced MTT dye was solubilized in 200 μL/well DMSO. Absorbance at 570 nm was determined on a plate reader.

Structure (SMILES)	Tumor growth suppression in the PC-3 model (PC-3 xenograft tumor)	In vitro potency against the viability of PC-3 cells [1]
O=[N+]([O-])c1cc(S(=O)(=O)n2cc(CO)c3ccccc32)ccc1Cl [OSU-A9, [1-(3′-nitro-4′-chlorobenzenesulfonyl)-1H-indol-3-yl]-methanol, reference compound]	significant tumor growth suppression	–
O=[N+]([O-])c1cc(S(=O)(=O)n2cc(CO)c3cc(F)ccc32)ccc1Cl [OSU-A9F, reference compound]	–	greater than or similar to that of OSU-A9
